Results from US20260001914A1, “MACROCYCLIC PEPTIDES TARGETING KRAS” (Merck Sharp & Dohme LLC, priority 2022, published 2026).
*1 amine or outer side, *2 acyl side, *3 side chain or, on linkers, in order; H or OH if unused. Where a SMILES comes first, the peptide text is derived from it. Bridges are numbered along the chain shown (N, C = ends). [ ]: non-standard residue; d: D form. Ala(pyrimidin-5-yl) = N[C@@H](Cc1cncnc1)C(=O)O; X81 = Cc1ccc(C[C@H](N[*:1])C(=O)[*:2])c(F)n1; NMe3Pal(5-F) = CN[C@@H](Cc1cncc(F)c1)C(=O)O; NMeAha = CN[C@@H](CCN=[N+]=[N-])C(=O)O; Phe(4-F) = N[C@@H](Cc1ccc(F)cc1)C(=O)O; Phe(2-F) = N[C@@H](Cc1ccccc1F)C(=O)O; NMe3Pal = CN[C@@H](Cc1cccnc1)C(=O)O; X1 = O=C(C12CC(CN[*:1])(C1)C2)[*:2]; NMeAad = CN[C@@H](CCCC(=O)O)C(=O)O; Aha = [N-]=[N+]=NCC[C@H](N)C(=O)O; Ala(cPr) = N[C@@H](CC1CC1)C(=O)O; NMeF = CN[C@@H](Cc1ccccc1)C(=O)O; PhLac = O=C(O)[C@@H](O)Cc1ccccc1; 3Pal = N[C@@H](Cc1cccnc1)C(=O)O; 4Pal = N[C@@H](Cc1ccncc1)C(=O)O; AllylGly = C=CC[C@H](N)C(=O)O; Ahp(2) = CCCCC[C@H](N)C(=O)O; Cba = N[C@@H](CC1CCC1)C(=O)O; NMeNle = CCCC[C@H](NC)C(=O)O; hLeu = CC(C)CC[C@H](N)C(=O)O; NMeA = CN[C@@H](C)C(=O)O; Nle = CCCC[C@H](N)C(=O)O; Nva = CCC[C@H](N)C(=O)O

Target: KRAS-G12D protein (Homo sapiens, UniProt P01116, G12D)
Assay: SOS-mediated nucleotide exchange assay (BODIPY-GDP / Tb-streptavidin TR-FRET)
Assay type: biochemical

Chain of KRAS-G12D protein (P01116 1-188 isoform P01116-2 G12D): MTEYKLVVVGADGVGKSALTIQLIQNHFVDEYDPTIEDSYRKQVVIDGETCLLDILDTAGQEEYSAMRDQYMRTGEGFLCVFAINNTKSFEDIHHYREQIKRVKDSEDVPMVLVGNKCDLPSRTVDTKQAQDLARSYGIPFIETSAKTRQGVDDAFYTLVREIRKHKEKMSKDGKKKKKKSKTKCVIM

## CCCC[C@@H]1NC(=O)[C@@H]2C/C=C\C[C@@H](C(N)=O)NC(=O)[C@H](CSCC(=O)N[C@@H](Cc3ccccc3)C(=O)N[C@@H](CCCNC(=N)N)C(=O)N[C@@H](Cc3cccnc3)C(=O)N[C@@H](CC3CCC3)C(=O)N2)NC(=O)[C@H](Cc2cccnc2)N(C)C1=O [SEQ ID NO: 186, cyclo(C1Ac-F-R-3Pal-cBuA-Ape-Nle-NMe3Pal-C)] ({CH2CO}-FR[3Pal][Cba][AllylGly][Nle][NMe3Pal]C[AllylGly]-NH2; staple (Z) 5-9; thioether N-8)
  EC50: 7270 nM

## CCCCC[C@@H]1NC(=O)[C@H](Cc2ccc(OC)cc2)NC(=O)[C@H](CC2CCC2)NC(=O)[C@H](Cc2cccnc2)NC(=O)[C@H](CCCNC(=N)N)NC(=O)[C@H](Cc2ccccc2)OC(=O)C23CC(CNC(=O)[C@H](Cc4ccccc4)N(C)C1=O)(C2)C3 [compound 211, cyclo(FLac-R-3Pal-cBuA-TyrOMe-Ahp-NMeF-amBCP)] (cyclo([PhLac]R[3Pal][Cba]Y(Me)[Ahp(2)][NMeF][X1]))
  EC50: 10.8 nM

## CCC[C@@H]1NC(=O)[C@H](Cc2ccc(OC)cc2)NC(=O)[C@H](CC(C)C)NC(=O)[C@H](Cc2ccncc2)NC(=O)[C@H](CCCNC(=N)N)NC(=O)[C@H](Cc2ccc(F)cc2)NC(=O)CSC[C@H](C(=O)NCC(=O)O)NC(=O)[C@H](Cc2ccccc2)N(C)C1=O [compound 65, cyclo(Phe4F-R-4Pal-L-TyrOMe-Nva-NMeF-dC5-ClAc)] ({CH2CO}-[Phe(4-F)]R[4Pal]LY(Me)[Nva][NMeF][dC]G-OH; thioether N-8)
  EC50: 70.2 nM

## C[C@H]1C(=O)N[C@@H](Cc2cncnc2)C(=O)N[C@@H](CC2CC2)C(=O)N[C@@H](Cc2ccccc2F)C(=O)N[C@@H](CC2CC2)C(=O)N(C)[C@@H](Cc2ccccc2)C(=O)NCC23CC(C2)(C3)C(=O)O[C@@H](Cc2ccccc2)C(=O)N1C [compound 267, cyclo(FLac-NMeA-PyrimAla-cPrA-Phe2F-cPrA-NMeF-amBCP)] (cyclo([Ala(cPr)][NMeF][X1][PhLac][NMeA][Ala(pyrimidin-5-yl)][Ala(cPr)][Phe(2-F)]))
  EC50: 471 nM

## CC(C)CC[C@@H]1NC(=O)[C@H](Cc2ccccc2F)NC(=O)[C@H](CC2CC2)NC(=O)[C@H](Cc2cccnc2)NC(=O)[C@H](C)N(C)C(=O)[C@H](Cc2ccccc2)OC(=O)C23CC(CNC(=O)[C@H](Cc4cncc(F)c4)N(C)C1=O)(C2)C3 [compound 283, cyclo(FLac-NMeA-3Pal-cPrA-Phe2F-hL-NMe3Pal5F-amBCP)] (cyclo([3Pal][Ala(cPr)][Phe(2-F)][hLeu][NMe3Pal(5-F)][X1][PhLac][NMeA]))
  EC50: 3 nM

## CCCC[C@@H]1NC(=O)[C@H](Cc2cccnc2)NC(=O)[C@H](C)N(C)C(=O)[C@H](Cc2cccnc2)NC(=O)C23CC(CNC(=O)[C@H](Cc4cccnc4)N(C)C(=O)[C@H](CCCC)NC(=O)[C@H](Cc4ccccc4F)NC1=O)(C2)C3 [compound 163, cyclo(3Pal-NMeA-3Pal-Nle-Phe2F-Nle-NMe3Pal-amBCP)] (cyclo([3Pal][NMeA][3Pal][Nle][Phe(2-F)][Nle][NMe3Pal][X1]))
  EC50: 3060 nM

## CCCC[C@@H]1NC(=O)[C@H](Cc2cncnc2)NC(=O)[C@H](CCN=[N+]=[N-])N(C)C(=O)[C@H](Cc2ccccc2)OC(=O)C23CC(CNC(=O)[C@H](Cc4cccnc4)N(C)C(=O)[C@H](CCCC)NC(=O)[C@H](Cc4ccccc4F)NC1=O)(C2)C3 [compound 242, cyclo(FLac-NMeDabN3-PyrimAla-Nle-Phe2F-Nle-NMe3Pal-amBCP)] (cyclo([NMe3Pal][X1][PhLac][NMeAha][Ala(pyrimidin-5-yl)][Nle][Phe(2-F)][Nle]))
  EC50: 80.9 nM

## CCCC[C@@H]1NC(=O)[C@H](Cc2ccc(C)nc2F)NC(=O)[C@H](C)N(C)C(=O)[C@H](Cc2ccccc2)OC(=O)C23CC(CNC(=O)[C@H](Cc4ccccc4)N(C)C(=O)[C@H](CCCC)NC(=O)[C@H](Cc4ccccc4F)NC1=O)(C2)C3 [compound 311, cyclo(FLac-NMeA-3Pal2F4Me-Nle-Phe2F-Nle-NMeF-amBCP)] (cyclo([NMeA][X81][Nle][Phe(2-F)][Nle][NMeF][X1][PhLac]))
  EC50: 892 nM

## CCCC[C@@H]1NC(=O)[C@H](Cc2cccnc2)NC(=O)[C@H](CCCC(=O)N(C)C)N(C)C(=O)[C@H](Cc2ccccc2)OC(=O)C23CC(CNC(=O)[C@H](Cc4cccnc4)N(C)C(=O)[C@H](CCCC)NC(=O)[C@H](Cc4ccccc4F)NC1=O)(C2)C3 [compound 408, cyclo(FLac-hQdm-3Pal-Nle-Phe2F-Nle-NMe3Pal-amBCP)] (cyclo([3Pal][Nle][Phe(2-F)][Nle][NMe3Pal][X1][PhLac][NMeAad](NMe2)))
  EC50: 161 nM

## CCCC[C@@H]1NC(=O)[C@H](Cc2ccccc2F)NC(=O)[C@H](CCN=[N+]=[N-])NC(=O)[C@H](Cc2cccnc2)NC(=O)[C@H](CCCC)N(C)C(=O)[C@H](Cc2ccccc2)OC(=O)C23CC(CNC(=O)[C@H](Cc4cccnc4)N(C)C1=O)(C2)C3 [compound 243, cyclo(FLac-NMeNle-3Pal-DabN3-Phe2F-Nle-NMe3Pal-amBCP)] (cyclo([3Pal][Aha][Phe(2-F)][Nle][NMe3Pal][X1][PhLac][NMeNle]))
  EC50: 3060 nM
